Reference: patent US8541415B2 (University of Pittsburgh—of the Commonwealth System of …, priority 2008, dated 2013)
Read-outs that look alike come from different tables or passages of the source.

Experiments:
U87MG cells = conditions: human
Description: (§1) Lead compounds from the yeast screen were evaluated for activity in a Nef-dependent HIV replication assay. For these experiments, U87MG astroglioma cells engineered to express the HIV-1 co-receptors CD4 and CXCR4 were employed. Replication of HIV-1 NL4-3 is dependent upon an intact viral nef gene in these cells, making this system suitable to evaluate leads from the Nef-directed screen. U87MG cells were infected with HIV-1 in the presence of the top five compounds identified in the yeast screen, and HIV replication was monitored as p24 release into the culture supernatant 4 days later, as known in the art. As known in the art, “p24” refers to a constituent protein of the capsid of HIV-1.
(§2) The data of Table 1 are presented as percent p24 release relative to control in the absence of compound. […] Data are expressed as percent viable cells relative to untreated control culture.

HIV-1 strain NL4-3 = experiment: microbe, parasite or virus in culture; assay type: cell-based; conditions: for IC50 / activity at 5 µM: Human immunodeficiency virus 1, NL43, U-87 MG; for Suppression of HIV replication: p24 release 4 days later, leads from yeast screen; for activity at 5 µM: 96 h, read-out: HIV p24% Control @ day 4; for Anti-HIV activity (words, structure-activity comment on Table 1): 5 μM, p24 day 4; for Inhibition of pseudotyped NL43 HIV-1 replication: FIGS. 1-3
Description: as §1, §2
It is understood that “strongest” and like terms in the context of inhibitors identified in a library screen refer to compounds that inhibit at the lowest concentrations. For these experiments, the U87MG astroglioma cell line was used as a model system. […] U87MG cells were infected with HIV-1 strain NL4-3 as well as an isogenic variant that fails to express Nef (ΔNef), over a wide range of viral titers and in the presence of each compound at 5 μM. Viral replication was assessed as HIV p24 antigen release into the culture supernatant 4 and/or 5 days later. Methods for the assay of p24 in culture supernatant are well known in the art and include, for example without limitation, immunochemical methods.

[1] = system: HIV-ΔNef mutant (NL4-3 that fails to express Nef); experiment: Replication of Nef-defective HIV in U87MG cells (p24 ELISA); conditions: p24 ELISA day 5, FIG. 8, for Ma even at 10 μM
Description: HIV p24 release was determined by ELISA at day 5 following the addition of the DFP-analogs. […] U87MG cells were infected a viral density of 500 pg/ml. p24 as determined by ELISA.
To address whether Nef is required for the anti-retroviral effects of these compounds, HIV replication assays in U87MG cells infected with either wild-type or Nef-defective HIV were carried out.
Viral replication was monitored by measuring p24 protein levels in the culture supernatant 4 days after infection by standard ELISA-based techniques. Test compounds were added to the culture 30 min prior to infection with HIV, and DMSO was used as the carrier solvent at a final concentration of 0.1%.
Nef:Hck-YEEI complex [2] = conditions: Z'-Lyte dose-response, FIG. 7A
Nef:Hck-YEEI complex [3] = molecular target: T1, Nef:Hck-YEEI complex (Homo sapiens, UniProt P08631); experiment: biochemical
Target sequence in this assay (P08631 with tags, fused parts or gaps isoform P08631-3, other chains not shown): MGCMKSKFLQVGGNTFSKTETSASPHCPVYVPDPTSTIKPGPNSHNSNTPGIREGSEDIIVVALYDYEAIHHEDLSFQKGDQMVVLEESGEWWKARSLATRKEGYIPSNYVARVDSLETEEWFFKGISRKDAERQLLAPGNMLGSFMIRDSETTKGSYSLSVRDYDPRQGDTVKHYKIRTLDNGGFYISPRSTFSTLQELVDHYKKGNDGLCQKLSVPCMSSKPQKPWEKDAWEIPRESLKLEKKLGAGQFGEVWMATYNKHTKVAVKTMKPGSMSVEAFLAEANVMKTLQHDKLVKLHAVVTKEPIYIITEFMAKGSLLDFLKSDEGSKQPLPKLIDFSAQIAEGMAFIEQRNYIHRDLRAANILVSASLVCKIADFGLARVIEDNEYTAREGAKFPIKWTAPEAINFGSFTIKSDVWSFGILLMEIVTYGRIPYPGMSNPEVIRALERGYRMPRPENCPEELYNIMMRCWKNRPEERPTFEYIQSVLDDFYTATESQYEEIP
Nef:Hck-YEEI complex [4] = molecular target: T1, Nef:Hck-YEEI complex; conditions: Z'-Lyte dose-response, FIG. 7
Target sequence in this assay (P08631 with tags, fused parts or gaps isoform P08631-3, other chains not shown): as above
Nef:Hck-YEEI complex [5] = molecular target: T1, Nef:Hck-YEEI complex
Target sequence in this assay (P03407 2-210): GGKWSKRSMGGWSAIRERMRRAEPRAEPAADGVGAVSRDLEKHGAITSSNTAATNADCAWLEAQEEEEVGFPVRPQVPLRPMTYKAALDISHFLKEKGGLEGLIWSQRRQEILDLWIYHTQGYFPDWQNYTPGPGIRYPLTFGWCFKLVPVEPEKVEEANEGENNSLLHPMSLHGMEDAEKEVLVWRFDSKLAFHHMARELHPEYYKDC
Target sequence in this assay (P08631 other isoform, or with tags, fused parts or gaps): as the sequence (P08631 with tags, fused parts or gaps isoform P08631-3, other chains not shown) above
Description: For the liquid growth assay, yeast strain W303a was co-transformed with the required plasmids, seeded at an initial density of OD600nm=0.05 units in SD/-U-T medium, and incubated for 21 h at 30° C.
Aliquots of yeast cultures used for the spot assay were grown in SD/-U-T medium plus galactose for 18 h. […] Aliquots of each lysate (0.2 OD600nm units) were separated via SDS-PAGE, transferred to PVDF membranes, and probed for protein phosphotyrosine content with a combination of the anti-phosphotyrosine antibodies PY99 (Santa Cruz Biotechnology, Santa Cruz, Calif.) and PY20 (Transduction Laboratories, Lexington, Ky.).
Yeast strain W303a was co-transformed with Hck-YEEI (SE0 ID NO: 4) and Nef expression plasmids and grown to an OD600nm of 0.05. Cells (100 μL) were plated in duplicate wells of a 96-well plate in the presence of each compound from the Chempiv kinase-biased inhibitor library (Chempiv, Inc., San Diego, Calif.). All compounds were initially screened at 10 μM with 0.5% DMSO as carrier solvent. […] Cultures were incubated at 30° C., and the OD60nm was measured at 0 and 22 h.

Row | Structure (SMILES) | Cytotoxicity, Viable cell % control (U87MG cells; 96 h, 30 μM) | activity at 5 µM (HIV-1 strain NL4-3) | also measured
1 | O=S(=O)(Nc1nc2ccccc2nc1Nc1ccc2c(c1)OCCO2)c1ccc(Cl)cc1 [Compound Ia, 4-Chloro-N-[3-(2,3-dihydro-benzo[1,4]dioxin-6-ylamino)-quinoxalin-2-yl]-benzenesulfonamide] | – | – | Concentration up to which not cytotoxic (U87MG cells): > 50 µM; IC50 (HIV-1 strain NL4-3; read-out: IC50, HIV replication, U87MG cells expressing CD4 and CXCR4, HIV-1 NL4-3, concentration-response): ~0.13 µM; Suppression of HIV replication (HIV-1 strain NL4-3; U87MG cells): significantly suppressed HIV replication; melting point: 257 to 258 °C
2 | OCCNc1ncnc2oc(-c3ccccc3)c(-c3ccccc3)c12 [IIIL] | 94 % control | 93% | –
3 | COc1ccc2nc(NS(=O)(=O)c3ccccc3)c(Nc3cc(OC)c(OC)c(OC)c3)nc2c1 [Compound Q10] | 95 % control | 62% | –
4 | O=S(=O)(Nc1nc2ccccc2nc1Nc1ccccc1)c1ccccc1 [Compound Q7] | 97 % control | 42% | –
5 | CCOc1ccc(S(=O)(=O)Nc2nc3ccccc3nc2Nc2ccccc2)cc1 [Compound Q16] | 100 % control | 91% | –
6 | COc1ccc(Nc2nc3ccccc3nc2NS(=O)(=O)c2ccc(C)cc2)c(OC)c1 [Compound Q8] | 90 % control | 55% | –
7 | CCOc1ccc(S(=O)(=O)Nc2nc3ccccc3nc2Nc2ccc(OC)cc2)cc1 [Compound Q18] | 99 % control | 112% | –
8 | O=C(Nc1ncnc2oc(-c3ccccc3)c(-c3ccccc3)c12)c1ccco1 [IIIh] | 89 % control | 59% | –
9 | Cc1ccc(-c2oc3ncnc(N)c3c2-c2ccc(C)cc2)cc1 [IIId] | 90 % control | 29% | –
10 | COc1ccc(-c2oc3ncnc(N)c3c2-c2ccccc2)cc1 [IIIj] | 97 % control | 73% | –
11 | c1ccc(-c2oc3ncnc(NCCN4CCOCC4)c3c2-c2ccccc2)cc1 [IIIe] | 89 % control | 39% | –
12 | c1ccc(-c2oc3ncnc(NCc4ccco4)c3c2-c2ccccc2)cc1 [IIIb] | 109 % control | 8% | –
13 | COc1ccc(Nc2nc3ccccc3nc2NS(=O)(=O)c2ccc(Cl)cc2)cc1OC [Compound Q3] | 100 % control | 13% | Anti-HIV activity (words, structure-activity comment on Table 1) (HIV-1 strain NL4-3; U87MG cells): one of the most active compounds
14 | COc1ccc(OC)c(Nc2nc3ccccc3nc2NS(=O)(=O)c2ccc(Cl)cc2)c1 [Compound Q2] | 100 % control | 10% | –
15 | COc1ccc(Nc2nc3ccccc3nc2NS(=O)(=O)c2ccccc2)cc1 [Compound Q20] | 89 % control | 119% | –
16 | COc1ccc(Nc2nc3ccccc3nc2NS(=O)(=O)c2ccc(C)cc2)cc1OC [Compound Q13] | 91 % control | 82% | –
17 | CCOc1ccccc1Nc1nc2ccccc2nc1NS(=O)(=O)c1ccc(C)cc1 [Compound Q9] | 100 % control | 60% | –
18 | O=S(=O)(Nc1nc2ccccc2nc1Nc1cccc2ccccc12)c1ccc(Cl)cc1 [Compound Q22, 4-Chloro-N-[3-(naphthalen-1-ylamino)-quinoxalin-2-yl]-benzenesulfonamide] | – | – | Selectivity wild-type vs Nef-deficient NL43 HIV-1 (HIV-1 strain NL4-3; U87MG cells infected with wild-type or Nef-deficient virus, FIG. 3): selective and more potent at inhibiting the replication of wild-type virus; Inhibition of pseudotyped NL43 HIV-1 replication (HIV-1 strain NL4-3; U87MG cells): potent inhibitors of viral infection; melting point: 262 to 265 °C

Row | Structure (SMILES) | Cytotoxicity, Viable cell % control (U87MG cells; 96 h, 30 μM) | activity at 5 µM (HIV-1 strain NL4-3) | also measured
19 | O=C(O)CNc1ncnc2oc(-c3ccccc3)c(-c3ccccc3)c12 [IIIg] | 100 % control | 58% | –
20 | COc1ccc(Nc2nc3ccccc3nc2NS(=O)(=O)c2ccccc2)cc1OC [Compound Q17] | 97 % control | 100% | Anti-HIV activity (words, structure-activity comment on Table 1) (HIV-1 strain NL4-3; U87MG cells): one of the least active
21 | OCCCNc1ncnc2oc(-c3ccccc3)c(-c3ccccc3)c12 [IIIa, 3-(5,6-diphenylfuro[2,3-d]pyrimidin-4-ylamino)propan-1-ol] | 95 % control | 20% | Cytotoxicity against U87MG cells (U87MG cells; 96 h, 30 μM): neither DFP-4AP nor any of the other diphenylfuropyrimidine analogs displayed significant cytotoxicity; Effect on replication of HIV-ΔNef mutant [1]: no effect; IC50 (HIV-1 strain NL4-3; 120 h, read-out: IC50, HIV-1 replication (viral p24 release), U87MG cells, HIV strain NL4-3, p24 ELISA 5 days later, FIG. 5C): 6 µM; HIV replication, p24 release (HIV-1 strain NL4-3; U87MG cells, HIV-1 NL4-3, compound at 5 μM, 4 and/or 5 days, FIG. 6): undetectable levels; IC50, wild-type HIV replication (HIV-1 strain NL4-3; U87MG cells, wild-type NL4-3, p24 ELISA day 5, FIG. 8): low μM range; Increase in potency in the presence of Nef (Nef:Hck complex vs Hck alone) (Nef:Hck-YEEI complex [2]): 2 fold; IC50 (Nef:Hck-YEEI complex [3]; IC50, Nef-induced Hck activation (Nef:Hck complex kinase activity), in vitro, peptide substrate, triplicate, FIG. 5B legend): 4 µM; IC50 (Nef:Hck-YEEI complex [3]; IC50, kinase activity of Nef:Hck-YEEI complex, dose response study, FIG. 5B, text b88): ~3 µM
22 | Cc1nc2sc(-c3nc4ccccc4[nH]3)c(N)c2c(C)c1Cl [IIa] | – | – | Concentration up to which not cytotoxic (U87MG cells): > 50 µM; Suppression of HIV replication (HIV-1 strain NL4-3; U87MG cells): significantly suppressed HIV replication
23 | c1ccc(-c2oc3ncnc(NCCCc4ccco4)c3c2-c2ccccc2)cc1 [IIIq, N-(3-(furan-2-yl)propyl) 5,6-diphenylfuro[2,3-d]pyrimidin-4-amine] | – | – | Effect on replication of HIV-ΔNef mutant [1]: Neither IIIm nor IIIq shows inhibition; IC50 (HIV-1 strain NL4-3; 120 h, read-out: IC50, wild-type HIV replication, U87MG cells, wild-type NL4-3, p24 ELISA day 5, FIG. 8): ≤ 1 µM; Inhibition of Nef:Hck complex (Nef:Hck-YEEI complex [4]): enhanced both potency and efficacy for the Nef:Hck complex vs. Hck alone
24 | O=S(=O)(Nc1nc2ccccc2nc1Nc1ccc2ccccc2c1)c1ccc(Cl)cc1 [Compound Q21, 4-Chloro-N-[3-(naphthalen-2-ylamino)-quinoxalin-2-yl]-benzenesulfonamide] | – | – | Inhibition of pseudotyped NL43 HIV-1 replication (HIV-1 strain NL4-3; U87MG cells): potent inhibitors of viral infection; melting point: 222 to 224 °C
25 | O=S(=O)(Nc1nc2ccccc2nc1Nc1cccc2ccccc12)c1ccccc1 [Compound Q4] | 100 % control | 26% | –
26 | O=S(=O)(Nc1nc2ccccc2nc1Nc1ccc2ccccc2c1)c1ccccc1 [Compound Q1] | 98 % control | 4% | –
27 | COc1ccccc1Nc1nc2ccccc2nc1NS(=O)(=O)c1ccccc1 [Compound Q14] | 93 % control | 87% | –
28 | COc1ccc(Nc2nc3ccccc3nc2NS(=O)(=O)c2ccc(Cl)cc2)c(OC)c1 [Compound Q5] | 96 % control | 26% | –
29 | Nc1ncnc2oc(-c3ccco3)c(-c3ccco3)c12 [IIIc] | – | 20% | –
30 | Nc1ccc(S(=O)(=O)Nc2nc3ccccc3nc2Nc2ccc3ccccc3c2)cc1 [Compound Q6] | 92 % control | 40% | –
31 | Cc1ccc(S(=O)(=O)Nc2nc3ccccc3nc2Nc2ccc3c(c2)OCCO3)cc1 [Compound Q15] | 96 % control | 88% | –
32 | c1ccc(-c2oc3ncnc(NCCCN4CCOCC4)c3c2-c2ccccc2)cc1 [IIIf] | 99 % control | 47% | –
33 | O=S(=O)(Nc1nc2ccccc2nc1Nc1cccc(O)c1)c1ccccc1 [Compound Q19] | 92 % control | 114% | –
34 | CN1CCN(C2CCC(n3cc(-c4ccc(Oc5ccccc5)cc4)c4c(N)ncnc43)CC2)CC1 (stereo not drawn) [Compound A-419259] | – | – | Tyrosine phosphorylation of yeast proteins (Nef:Hck-YEEI complex [5]; inhibitor-treated yeast cultures, anti-phosphotyrosine immunoblot): decrease in tyrosine phosphorylation of yeast proteins to control levels; Reversal of growth arrest compared with Nef PxxP mutation (Nef:Hck-YEEI complex [5]; liquid yeast cultures, 5 μM): nearly as effective as mutation of the Nef PxxP motif; Reversal of growth suppression induced by Nef:Hck-YEEI (Nef:Hck-YEEI complex [5]; liquid yeast cultures, OD 600 nm, at both 1 μM and 5 μM vs untreated cultures): significantly reversed the growth suppression
35 | O=S(=O)(Nc1nc2ccccc2nc1Nc1ccc(O)cc1)c1ccccc1 [Compound Q11] | 88 % control | 68% | –
